# Measurements from publication PMC9827864, “In Situ Inhibitor Synthesis and Screening by Fluorescence Polarization: An Efficient Approach for Accelerating Drug Discovery” (Angewandte Chemie (International Ed. in English), 2022).
# How the values were obtained:
# [1] = system: C57BL/6J mouse models of anemia induced by cisplatin; assay: Improvement of anemia induced by cisplatin administration; assay type: in vivo; conditions: cisplatin-induced anemia mice, po, 20 mg·kg^-1
# Method: 5. Pharmacodynamic assay
# The experimental mice (SPF, […], male) were obtained from SPF (Beijing) Biotechnology Co., Ltd (permit number: SCXK (Jing) 2019-0010). All animal related experiments were conducted under a China Pharmaceutical University (the certification of using the housing facility of laboratory animals: SYXK (Su) 2018 -0019) IACUC approved protocol in compliance with the guide for the care and use of laboratory animals (number: 202013705). […]
# Representative compounds and Roxadustat were formulated in normal saline solution. […]
# China Pharmaceutical University (ADVIA 2120 hematology system). […]
# 5.3 Improvement of anemia induced by cisplatin administration
# C57BL/6J mice were treated with cisplatin ( po, 7 mg·kg-1) on days 0, 7, 14, and 28 of the experiment. On the 29th day, the animals were randomized into sham, control, and treated groups (n=5). […]
# treatment anemia caused by cisplatin. The mice were treated with the compounds every alternate day for 30 days. the test sample is obtained via orbital venous plexus. The hemoglobin of samples was analyzed in the center for new drug safety evaluation and research at China Pharmaceutical University (ADVIA 2120 hematology system).
# [2] = molecular target: T1, human prolyl hydroxylase 2 (PHD2) (Homo sapiens, UniProt Q9GZT9); assay: Fluorescence polarization (FP) competition assay of PHD2; conditions: purified compounds, 20 nM PHD2 (181-426), 30 nM probe, Cheng-Prusoff, mean±SD, read-out: Ki, binding affinity for PHD2
# T1 construct: (181-426); made in house
# Method: 2.1 Fluorescence polarization (FP) competition assay of PHD2 [4]
# FP assays were performed using a SPARK Multi-Mode Microplate Reader (Tecan) with excitation and emission filters appropriate for the fluorophore used in the binding experiment. Fluorescence polarization experiments were performed in 384-well, flat bottom, black assay plates (#3575, Corning) in a final volume of 60 µL. The final assay buffer contained: 30 nM fluorescence Probe, 20 nM PHD2 (181-426), 10 mM HEPES, pH 7.4, 150 mM NaCl, 0.05% Tween-20, and at the 1% DMSO (except for DMSO tolerance experiments, in which different DMSO concentrations were used as indicated). All plates measured in fluorescence polarization assays were incubated for a minimum of 30 min at RT. Fluorescence polarization was measured from the top of the well with a Tecan SPARK plate reader with polarized filters and optical modules for fluorescein (λex = 485 nm ± 25 nm, λem = 535 nm ± 25 nm). The standard error of the mean (SEM) values, were calculated by dividing the sample standard deviation by the square root of the sample size and are recorded as ± values for IC 50. Dose-dependent experiments were performed in th e same manner using at least 10 concentrations of the test compounds in 3 -fold serial dilutions from 100 µM. For each assay, negative controls (equivalent to 0% displacement) contained the fluorescent ligand, PHD2 (181 -426), and 20 µL FP buffer; blank cont rols contained only the fluorescent ligand and 40 µL buffer.
# The reaction mixtures were incubated at RT for 60 min, then total fluorescence and fluorescence polarization measurements wer e taken. The percentage inhibition was calculated using Equation 1, where mPfree is the signal for the free probe (blank control) and mPbound is the signal for the bound probe (negative control).
# IC50s were determined for duplicate measurements by non-linear least-squares analysis using GraphPad Prism 8.0.
# The Ki values of the inhibitors were calculated using the Cheng-Prusoff equation.[5] Cheng-Prusoff equation: Ki = IC50 / (1 + [L]/Kd)
# The Kd value was determined using a constant concentration of probe and titrating with PHD2 protein at increasing concentrations. [L] represents the concentration of the […] used in the FP assay. […]
# T1 sequence (Q9GZT9 181-426): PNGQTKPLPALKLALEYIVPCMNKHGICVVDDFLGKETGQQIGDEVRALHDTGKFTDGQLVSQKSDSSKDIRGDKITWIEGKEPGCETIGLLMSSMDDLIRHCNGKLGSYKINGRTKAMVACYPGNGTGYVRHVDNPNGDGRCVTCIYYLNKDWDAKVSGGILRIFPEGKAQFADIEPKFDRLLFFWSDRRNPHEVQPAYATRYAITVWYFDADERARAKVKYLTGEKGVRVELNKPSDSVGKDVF
Compound,melting point,Ki [2],Improvement of anemia (%) [1]
"Cc1nc(C(=O)NCC(=O)O)c(O)c2ccc(Oc3ccccc3)cc12 [Roxadustat, reference compound]",–,–,48.5%
O=C(N/N=C/c1cccc(O)c1O)c1cnc(-c2cccnn2)[nH]c1=O [compound 2],–,0.068 ± 0.006 µM,–
O=C(N/N=C/c1cccc(O)c1O)c1cnc(-c2ccccn2)[nH]c1=O [compound 3],> 300 °C,0.048 ± 0.004 µM,–
O=C(N/N=C/c1cccc(O)c1O)c1cnc(-c2ncccn2)[nH]c1=O [compound 4],> 300 °C,0.5 ± 0.016 µM,–
O=C(N/N=C/c1cccc(O)c1O)c1cnc(-n2cncn2)[nH]c1=O [compound 5],> 300 °C,0.548 ± 0.032 µM,–
O=C(N/N=C/c1ccc(O)c(O)c1)c1cnc(-c2ccccn2)[nH]c1=O [compound 6],294.7 to 295.2 °C,2.62 ± 0.103 µM,–
O=C(N/N=C/c1ccccc1O)c1cnc(-c2ccccn2)[nH]c1=O [compound 8],> 300 °C,0.639 ± 0.037 µM,–
O=C(O)c1ccc(/C=N/NC(=O)c2cnc(-c3ncccn3)[nH]c2=O)cc1 [compound 13],> 300 °C,1.05 ± 0.129 µM,–
O=C(N/N=C/c1cccc(Cl)c1O)c1cnc(-c2cccnn2)[nH]c1=O [compound 16],> 300 °C,0.394 ± 0.017 µM,–

# Continued by falling Ki [2], values first:
melting point,Ki [2],Compound,Improvement of anemia (%) [1]
> 300 °C,0.483 ± 0.009 µM,O=C(N/N=C/c1cc(O)ccc1O)c1cnc(-c2ccccn2)[nH]c1=O [compound 9],–
> 300 °C,0.2 ± 0.008 µM,O=C(O)c1cc(/C=N/NC(=O)c2cnc(-c3ccccn3)[nH]c2=O)ccc1O [compound 15],–
> 300 °C,0.155 ± 0.018 µM,O=C(O)c1cc(/C=N/NC(=O)c2cnc(-c3cccnn3)[nH]c2=O)ccc1O [compound 14],–
> 300 °C,0.13 ± 0.004 µM,O=C(N/N=C/c1ccc(O)c(O)c1O)c1cnc(-c2ccccn2)[nH]c1=O [compound 10],–
–,0.119 ± 0.009 µM,O=C(O)c1ccccc1/C=N/NC(=O)c1cnc(-c2cccnn2)[nH]c1=O [compound 11],–
> 300 °C,0.116 ± 0.005 µM,O=C(N/N=C/c1cccc(O)c1Cl)c1cnc(-c2ccccn2)[nH]c1=O [compound 18],–
> 300 °C,0.113 ± 0.005 µM,O=C(N/N=C/c1cccc(O)c1O)c1cnc(-n2cccn2)[nH]c1=O [compound 1],–
> 300 °C,0.103 ± 0.004 µM,O=C(O)c1ccc(/C=N/NC(=O)c2cnc(-c3ccccn3)[nH]c2=O)cc1 [compound 12],–
> 300 °C,0.072 ± 0.005 µM,O=C(N/N=C/c1cc(O)c(O)c(O)c1)c1cnc(-c2ccccn2)[nH]c1=O [compound 7],–
